Assay results: US7091345B2, “Amino-substituted dihydropyrimido[4,5-D]pyrimidinone derivatives” (Hoffmann-La Roche Inc., priority 2002, dated 2006)
Read-outs that look alike come from different tables or passages of the source.

Key:
Src (p60^c-src) = molecular target: T1, Src (p60^c-src) (Homo sapiens, UniProt P12931); assay: SRC-Inhibitor-Assay, time-resolved fluorescence kinase assay (Src); format: biochemical; settings: ATP 5 μM, enzyme 2.5 U/ml, pre-incubation 15 min at 15° C.
T1 construct: purchased Upstate (UBI)
T1 sequence (P12931 whole entry): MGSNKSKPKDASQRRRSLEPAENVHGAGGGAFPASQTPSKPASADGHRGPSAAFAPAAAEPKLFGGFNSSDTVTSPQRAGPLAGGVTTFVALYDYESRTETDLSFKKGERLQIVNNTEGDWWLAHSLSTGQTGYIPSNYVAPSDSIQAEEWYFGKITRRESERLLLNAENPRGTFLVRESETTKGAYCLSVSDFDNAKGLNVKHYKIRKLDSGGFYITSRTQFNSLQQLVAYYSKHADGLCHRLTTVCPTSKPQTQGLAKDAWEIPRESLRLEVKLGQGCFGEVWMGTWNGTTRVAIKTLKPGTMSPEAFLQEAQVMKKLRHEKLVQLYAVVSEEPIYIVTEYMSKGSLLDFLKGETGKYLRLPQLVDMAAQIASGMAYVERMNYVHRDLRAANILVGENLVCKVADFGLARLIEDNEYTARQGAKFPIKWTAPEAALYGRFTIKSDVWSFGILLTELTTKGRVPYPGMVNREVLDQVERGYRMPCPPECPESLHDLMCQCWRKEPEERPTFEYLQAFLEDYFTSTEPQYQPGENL
Procedure: (§1) The activity of the compounds according to this invention as inhibitors for the src-family tyrosine kinases was shown by using the following assay.
(§2) SRC-Inhibitor-Assay Parameters:
(§3) Assay buffer: 4 mM MgCl2 • 2 mM TCEP • 50 mM HEPES • 0,1% Tween 20 • pH 7.3
(§4) Material: Eu-labelled phosphotyrosine antibody:—for Lck Cisbio Mab PT66-K, for Src EG&G Wallac PT66 Eu-W1024 (all commercially available). Peptides: Ro: NH2-A-E-E-E-I-Y-G-E-F-E-A-K-K-K-K-CONH2, and Ja133-Ro: Ja133-G-Aminocaprylic acid-A-E-E-E-I-Y-G-E-F-E-A-K-K-K-K-CONH2, wherein Ja133 is LightCycler-Red 640-N-hydroxy succinimide ester; whereby both peptides were synthesized by an optimized solid phase peptide synthesis protocol (Merrifield, Fed. Proc. Fed. Amer. Soc. Exp. Biol. 21 (1962) 412) on a Zinsser SMP350 peptide synthesizer. Shortly, the peptide was assembled on 160 mg (22.8 μmol scale) of a Rink-Linker modified polystyrene solid phase by repeatedly conjugating an twenty fold excess of amino acids each protected by temporary piperidine labile Fmoc- and permanent acid labile tert-Bu-, BOC— and Otert-Bu-groups depending on the side chain function. The substrate sequence AEEEIYGEFEAKKKK was N-terminal additionally mounted with the spacer amino acids Aminocaprylic acid and Glycin. After cleavage of the N-terminal temporary protecting group the still attached and protected peptide was labeled with a 1.5 fold amount of LightCycler-Red 640-N-hydroxy succinimide ester (purchased by Roche Diagnostics GmbH) and triethylamine. After 3 hrs. the resin was washed with Dimethylformamide and Isopropanol until the eluates of the blue resin got colourless. […] The substrate was finally isolated by a preparative reverse phase HPLC purification. The purification yielded 12.2 mg RP-HPLC single peak pure blue material (lyophilisate). The identity was proven by MALDI mass spectroscopy [2720.0]. Enzymes: Upstate Lck (p56^lck, active), Upstate Src (p60^c-src, partially purified) were purchased from UBI. Time-resolved Fluorescence Assay: Reader: Perkin Elmer, Wallac Viktor 1420-040 multilabel counter; Liquid handling system: Beckman Coulter, Biomek 2000. ATP, Tween 20, HEPES were purchased from Roche Molecular Biochemicals, MgCl2 and MnCl2 were purchased from Merck Eurolab, TCEP was purchased from Pierce, 384 Well low volume fluorescence plates was purchased from Falcon. Assay Description:
(§5) At first the enzyme is pre-incubated for 15 min. at 15° C. in aqueous solution with corresponding amounts of inhibitors according to this invention. Then the phosphorylation reaction is started by adding a reaction mixture, containing ATP, Peptide and PT66, and subsequent shaking. The proceeding of this reaction is immediately monitored using time resolved fluorescence spectroscopy in a suitable well plate reader.
(§6) The IC50-values can be obtained from the reaction rates by using a non-linear curve fit (Excelfit).

Lck (p56^lck) = molecular target: T2, Lck (p56^lck) (Homo sapiens, UniProt P06239); assay: SRC-Inhibitor-Assay, time-resolved fluorescence kinase assay (Lck); format: biochemical; settings: ATP 5 μM, enzyme 2.5 U/ml, pre-incubation 15 min at 15° C.
T2 construct: purchased Upstate (UBI)
T2 sequence (P06239 whole entry, species assumed): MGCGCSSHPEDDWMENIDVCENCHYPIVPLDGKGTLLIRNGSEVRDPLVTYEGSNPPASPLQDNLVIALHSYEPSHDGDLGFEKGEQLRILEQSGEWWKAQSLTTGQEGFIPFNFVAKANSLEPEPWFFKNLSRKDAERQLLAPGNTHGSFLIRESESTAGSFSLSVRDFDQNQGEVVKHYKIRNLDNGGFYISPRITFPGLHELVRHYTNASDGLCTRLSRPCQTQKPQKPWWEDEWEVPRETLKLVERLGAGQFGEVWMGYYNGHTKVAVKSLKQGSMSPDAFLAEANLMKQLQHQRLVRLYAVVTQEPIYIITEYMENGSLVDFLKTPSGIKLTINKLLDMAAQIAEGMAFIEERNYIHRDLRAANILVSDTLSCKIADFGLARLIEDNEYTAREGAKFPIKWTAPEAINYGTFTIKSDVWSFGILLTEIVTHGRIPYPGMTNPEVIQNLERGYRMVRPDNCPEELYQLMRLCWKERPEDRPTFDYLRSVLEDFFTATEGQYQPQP
Procedure: as §1, §2, §3, §4, §5, §6

[1] = Pharmacokinetic study in mice, plasma levels after single p.o. dose; format: in vivo; settings: male NMRI mice, p.o. single dose 30 mg/kg as micro-suspension, dose-normalised
Procedure: A preferred pharmaceutical preparation was obtained by using the following procedure: • 1. Weigh 4.0 g glass beads in custom made tube GL 25, 4 cm (the beads fill half of the tube). • 2. Add 50 mg compound, disperse with spatulum and vortex. • 3. Add 2 ml gelatin solution (weight beads: gelatin solution=2:1) and vortex. • 4. Cap and wrap in aluminium foil for light protection. • 5. Prepare a counter balance for the mill. • 6. Mill for 4 hours, 20/s in a Retsch mill (for some substances up to 24 hours at 30/s). • 7. Extract suspension from beads with two layers of filter (100 μm) on a filter holder, coupled to a recipient vial by centrifugation at 400 g for 2 min. • 8. Move extract to measuring cylinder. • 9. Repeat washing with small volumes (here 1 ml steps) until final volume is reached or extract is clear. • 10. Fill up to final volume with gelatin and homogenise.
The above described preparation yields micro-suspensions of the compounds of formula I with particle sizes between 1 and 10 μm. The suspensions are suitable for oral applications and were used in the in vivo pharmacokinetic testings described below.
To male NMRI mice of 29–35 g body weight the compounds according to this invention were given p.o. as micro-suspensions (7.5% modified gelatine and 0.22% NaCl) in doses of 30 mg/kg (Drug concentration: 3 mg/mL. Administered volume: 10 mL/kg) and as single dose administration. Study Protocol:
Animals were fasted overnight up to 4 hrs. after administration of the compound. For each single p.o. dose the mice were allocated to 3 groups with 4 animals each. Blood samples are taken from group 1 at 0.5, 3 and 24 hours, from group 2 at 1 and 6 hours, and from group 3 at 2 and 8 hours.
Blood samples of about 200 μl were obtained by retro-orbital puncture. Plasma samples were obtained from heparinized/EDTA blood by centrifugation at room temperature, and stored frozen at −20° C. until analysis.
Plasma was deproteinated and subsequently analysed for plasma levels of the compound by a compound specific HPLC-MS method. WinNonlin™ was used to calculate the pharmacokinetic parameters.

Compound	IC50 (Src (p60^c-src); read-out: IC 50 (src))	IC50 (Lck (p56^lck); read-out: IC 50 (lck))	AUC = area under the curve from T = 0 to T = 24 hrs [1]	melting point	IC50 (Src (p60^c-src); IC 50 (src))	IC50 (Lck (p56^lck); IC 50 (lck))
CN1C(=O)N(c2ccccc2Br)Cc2cnc(Nc3ccc4c(c3)OCC(CO)O4)nc21 (stereo not drawn) [Example 1, 3-(2-bromo-phenyl)-7-(2-hydroxymethyl-2,3-dihydro-benzo[1,4]dioxin-6-ylamino)-1-methyl-3,4-dihydro-1H-pyrimido[4,5-d]pyrimidin-2-one]	7.5 nM	6.3 nM	379 (h * ng/ml))/(mg/kg)	156 to 158 °C	–	–
CN1C(=O)N(c2ccccc2Br)Cc2cnc(Nc3ccc4c(c3)OC3(CCNCC3)O4)nc21 [Example 7, 3-(2-bromo-phenyl)-3,4-dihydro-7-(spiro[1,3-benzodioxolo-2,4′-piperidine]-5-yl)amino-1-methyl-pyrimido[4,5-d]pyrimidin-2(1H)-one]	–	–	813 (h * ng/ml))/(mg/kg)	–	2 nM	2.4 nM
CN1C(=O)CSc2cc(Nc3ncc4c(n3)N(C)C(=O)N(c3c(F)cccc3Br)C4)ccc21 [Example 13-12, 3-(2-bromo-6-fluoro-phenyl)-1-methyl-7-(4-methyl-3-oxo-3,4-dihydro-2H-benzo[1,4]thiazin-7-ylamino)-3,4-dihydro-1H-pyrimido[4,5-d]pyrimidin-2-one]	4.2 nM	14 nM	592 (h * ng/ml))/(mg/kg)	145 to 149 °C	–	–
CN1C(=O)N(c2ccccc2Br)Cc2cnc(Nc3ccc4c(c3)OCC(CN3CCCC3)O4)nc21 (stereo not drawn) [Example 13-21, 3-(2-bromo-phenyl)-1-methyl-7-(2-pyrrolidin-1-ylmethyl-2,3-dihydro-benzo[1,4]dioxin-6-ylamino)-3,4-dihydro-1H-pyrimido[4,5-d]pyrimidin-2-one]	–	–	120 (h * ng/ml))/(mg/kg)	201 to 203 °C	–	–
CN1CCS(=O)(=O)c2cc(Nc3ncc4c(n3)N(C)C(=O)N(c3ccccc3Br)C4)ccc21 [Example 13-26, 3-(2-bromo-phenyl)-1-methyl-7-(4-methyl-1,1-dioxo-1,2,3,4-tetrahydro-1lambda*6*-benzo[1,4]thiazin-7-ylamino)-3,4-dihydro-1H-pyrimido[4,5-d]pyrimidin-2-one]	–	–	–	250 to 251 °C	–	–
CN1C(=O)N(c2c(F)cccc2Br)Cc2cnc(Nc3ccc4c(c3)OC3(CCNCC3)O4)nc21 [Example 13-46, 3-(2-bromo-6-fluoro-phenyl)-3,4-dihydro-7-(spiro[1,3-benzodioxolo-2,4′-piperidine]-5-yl)amino-1-methyl-pyrimido[4,5-d]pyrimidin-2(1H)-one]	–	–	234 (h * ng/ml))/(mg/kg)	146 to 153 °C	2.3 nM	2.6 nM
